Counter-ions that a name gives are not always drawn.

The assay has as its target T1, human NCX1 (Homo sapiens, UniProt P32418).
T1 construct: expressed in transfected cells
The assay can be described thus: NCX1 inhibition, reverse mode (Ca2+ influx into cells), FLIPR Fluo-4 assay. In kind it is cell-based. The settings on record: inhibition of NCX1 in reverse mode (Ca2+ influx into cells); read-out: NCX1rv IC50. The procedure, abridged: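 CHO cells stably expressing human NCX1 were loaded with 2 µM Fluo-4 AM for 80 min at room temperature, then preincubated with compound for 45 min at 16 °C in pH 7.4 HEPES buffer (3.5 mM CaCl2, 2.5 mM probenecid). Reverse-mode Ca2+ influx was triggered by 20 µM final gramicidin and read at 520 nm on FLIPR. IC50 came from % inhibition of max−min fluorescence.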
The term IC50 denotes the concentration needed to halve the response being measured. As to `Cc1nc(Oc2ccc3c(c2)CC[C@@H](c2ccccc2)O3)sc1C(=O)NCc1ccno1` [compound 168], the IC50 was 200 nM.

Regarding `Cc1nc(Oc2ccc3c(c2)CC[C@@H](c2ccccc2)O3)sc1C(=O)NCCc1ccncc1` [compound 169, hydrochloride], the IC50 turned out to be 300 nM. For `Cc1nc(Oc2ccc3c(c2)CCC(c2ccccc2)O3)sc1C(=O)NCCc1ccncc1` (centres unmarked) [compound 170, hydrochloride], the half-maximal inhibitory concentration (IC50) stood at 300 nM. Regarding `O=C(NCc1ccno1)c1cnc(Oc2ccc3c(c2)CC[C@@H](c2ccccc2)O3)s1` [compound 171], the IC50 came to 100 nM. Turning to `O=C(NCc1ccno1)c1cnc(Oc2ccc3c(c2)CC[C@H](c2ccccc2)O3)s1` [compound 172], the IC50 was found to be 400 nM. The same measure for `Cc1noc(C)c1CCNC(=O)c1cnc(Oc2ccc3c(c2)CCC(c2cccc(O)c2)O3)s1` (centres unmarked) [compound 173]: 2300 nM; for `O=C(NCc1ccncc1)c1cnc(Oc2ccc3c(c2)CCC(c2cccc(O)c2)O3)s1` (centres unmarked) [compound 174, hydrochloride]: 800 nM; for `O=C(CN1CC[C@@H](O)C1)NCc1cnc(Oc2ccc3c(c2)CCC(c2ccccc2)O3)s1` (some centres unmarked) [compound 175]: 400 nM. The same measure for `Cc1ccccc1C1CCc2cc(Oc3ncc(C(=O)NCCc4c(C)noc4C)s3)ccc2O1` (centres unmarked) [compound 176]: 400 nM; for `Cc1nc(Oc2ccc3c(c2)CC[C@@H](c2ccccc2)O3)sc1C(=O)NCc1ccnc(Cl)c1` [compound 178, 4-Methyl-2-((S)-2-phenyl-chroman-6-yloxy)-thiazole-5-carboxylic acid (2-chloro-pyridin-4-ylmethyl)-amide hydrochloride]: 400 nM; for `Cc1ccccc1C1CCc2cc(Oc3ncc(C(=O)NCc4ccncc4)s3)ccc2O1` (centres unmarked) [compound 179]: 500 nM.

As to `CCOC(=O)[C@H](C)NC(=O)c1cnc(Oc2ccc3c(c2)CC[C@@H](c2ccccc2)O3)s1` [compound 180], the half-maximal inhibitory concentration (IC50) turned out to be 200 nM. With `COC(=O)CNC(=O)c1cnc(Oc2ccc3c(c2)CC[C@@H](c2ccccc2)O3)s1` [compound 181], the IC50 was 200 nM.

For `CCC(C)[C@H](NC(=O)c1cnc(Oc2ccc3c(c2)CC[C@@H](c2ccccc2)O3)s1)C(=O)OC` (some centres unmarked) [compound 183], the IC50 turned out to be 1200 nM. In the case of `COC(=O)[C@@H](C)NC(=O)c1cnc(Oc2ccc3c(c2)CC[C@@H](c2ccccc2)O3)s1` [compound 184] it was 400 nM. The same measure for `COC(=O)[C@@H]1CCCN1C(=O)c1cnc(Oc2ccc3c(c2)CC[C@@H](c2ccccc2)O3)s1` [compound 185]: 500 nM; for `CCOC(=O)[C@@H](NC(=O)c1cnc(Oc2ccc3c(c2)CC[C@@H](c2ccccc2)O3)s1)C(C)C` [compound 186]: 700 nM. Consider `COC(=O)C1(NC(=O)c2cnc(Oc3ccc4c(c3)CC[C@@H](c3ccccc3)O4)s2)CCCC1` [compound 187], for which the IC50 is 600 nM.

Take `CCOC(=O)C1(NC(=O)c2cnc(Oc3ccc4c(c3)CC[C@@H](c3ccccc3)O4)s2)CC1` [compound 188]: the IC50 was 600 nM. In the case of `CN(CC(=O)O)C(=O)c1cnc(Oc2ccc3c(c2)CC[C@@H](c2ccccc2)O3)s1` [compound 190] it was 900 nM; in that of `C[C@H](NC(=O)c1cnc(Oc2ccc3c(c2)CC[C@@H](c2ccccc2)O3)s1)C(=O)O` [compound 191], 600 nM. In the case of `O=C(O)CNC(=O)c1cnc(Oc2ccc3c(c2)CC[C@@H](c2ccccc2)O3)s1` [compound 192] it was 500 nM. In the case of `CC(C)(NC(=O)c1cnc(Oc2ccc3c(c2)CC[C@@H](c2ccccc2)O3)s1)C(=O)O` [compound 193] it was 600 nM. Turning to `C[C@@H](NC(=O)c1cnc(Oc2ccc3c(c2)CC[C@@H](c2ccccc2)O3)s1)C(=O)O` [compound 194], the half-maximal inhibitory concentration (IC50) was found to be 700 nM. In the case of `O=C(NC1(C(=O)O)CCCC1)c1cnc(Oc2ccc3c(c2)CC[C@@H](c2ccccc2)O3)s1` [compound 195] it was 700 nM; in that of `CCC(C)[C@H](NC(=O)c1cnc(Oc2ccc3c(c2)CC[C@@H](c2ccccc2)O3)s1)C(=O)O` (some centres unmarked) [compound 196], 500 nM; in that of `CC(C)[C@H](NC(=O)c1cnc(Oc2ccc3c(c2)CC[C@@H](c2ccccc2)O3)s1)C(=O)O` [compound 197], 600 nM. In the case of `O=C(O)CN1CCN(C(=O)c2cnc(Oc3ccc4c(c3)CC[C@@H](c3ccccc3)O4)s2)CC1` [compound 198], the half-inhibitory concentration (IC50) is 1300 nM. Regarding `O=C(NC1(C(=O)O)CC1)c1cnc(Oc2ccc3c(c2)CC[C@@H](c2ccccc2)O3)s1` [compound 199], the IC50 was 1000 nM. As to `O=C(N[C@H]1CCCC[C@H]1C(=O)O)c1cnc(Oc2ccc3c(c2)CC[C@@H](c2ccccc2)O3)s1` [compound 200], the half-inhibitory concentration (IC50) is 400 nM. Consider `O=C(N[C@H](CO)c1ccccc1)c1cnc(Oc2ccc3c(c2)CC[C@@H](c2ccccc2)O3)s1` [compound 201], for which the half-maximal inhibitory concentration (IC50) is 300 nM.

For `C[C@H](O)[C@H](CO)NC(=O)c1cnc(Oc2ccc3c(c2)CC[C@@H](c2ccccc2)O3)s1` [compound 202], the half-inhibitory concentration (IC50) was found to be 200 nM. Take `CC(C)[C@@H](CO)NC(=O)c1cnc(Oc2ccc3c(c2)CC[C@@H](c2ccccc2)O3)s1` [compound 203]: the half-maximal inhibitory concentration (IC50) came to 400 nM. On to `O=C(NCCO)c1cnc(Oc2ccc3c(c2)CC[C@@H](c2ccccc2)O3)s1` [compound 204], for which the IC50 amounted to 100 nM. Consider `O=C(c1cnc(Oc2ccc3c(c2)CC[C@@H](c2ccccc2)O3)s1)N1CCC[C@H]1CO` [compound 205], for which the concentration for half-maximal inhibition (IC50) was found to be 300 nM. The same measure for `O=C(NC[C@H]1CCCC[C@H]1O)c1cnc(Oc2ccc3c(c2)CC[C@@H](c2ccccc2)O3)s1` [compound 207]: 500 nM; for `CC[C@H](C)[C@@H](CO)NC(=O)c1cnc(Oc2ccc3c(c2)CC[C@@H](c2ccccc2)O3)s1` [compound 208]: 400 nM. Take `CC[C@@H](C)[C@H](CO)NC(=O)c1cnc(Oc2ccc3c(c2)CC[C@@H](c2ccccc2)O3)s1` [compound 209]: the concentration for half-maximal inhibition (IC50) was 300 nM.

As for `c1ccc([C@@H]2CCc3cc(Oc4ncc(CNCc5ccno5)s4)ccc3O2)cc1` [compound 210], the IC50 was found to be 100 nM. Turning to `O=C(NCc1ccnc(Cl)c1)c1cnc(Oc2ccc3c(c2)CCC(c2ccsc2)O3)s1` (centres unmarked) [compound 211, hydrochloride], the IC50 came to 400 nM. The same measure for `O=C(NCc1ccno1)c1cnc(Oc2ccc3c(c2)CCC(c2ccsc2)O3)s1` (centres unmarked) [compound 212]: 300 nM. Regarding `CN1CCN(C(=O)c2cnc(Oc3ccc4c(c3)CC[C@@H](c3ccccc3)O4)s2)CC1` [compound 213, hydrochloride], the IC50 stood at 800 nM. `Cc1ccccc1C1CCc2cc(Oc3ncc(C(=O)NCc4ccnc(Cl)c4)s3)ccc2O1` (centres unmarked) [compound 215]: the IC50 turned out to be 1000 nM.

Take `O=C(NCc1ccno1)c1cnc(Oc2ccc3c(c2)CCC(c2cc(F)ccc2F)O3)s1` (centres unmarked) [compound 217]: the half-inhibitory concentration (IC50) turned out to be 200 nM. In the case of `COC(=O)C(C)(Cc1ccccc1)NC(=O)c1cnc(Oc2ccc3c(c2)CC[C@@H](c2ccccc2)O3)s1` (some centres unmarked) [compound 218] it was 2500 nM; in that of `CCOC(=O)[C@H](Cc1ccccc1)NC(=O)c1cnc(Oc2ccc3c(c2)CC[C@@H](c2ccccc2)O3)s1` [compound 219], 4800 nM. The same measure for `COC(=O)[C@@H](NC(=O)c1cnc(Oc2ccc3c(c2)CC[C@@H](c2ccccc2)O3)s1)C(C)(C)C` [compound 220]: 600 nM.
